The source of these data is article PMC12000319, “Proton conductance by human uncoupling protein 1 is inhibited by purine and pyrimidine nucleotides” (The EMBO Journal, 2025).

Experiment [1] deals with T1, UCP1 (Homo sapiens, UniProt P25874).
T1 construct: His8 (N, cleaved yes); Factor Xa protease cleavage site (N, cleaved yes); made in house; host or cells: Saccharomyces cerevisiae strain W303.1B
T1 sequence (P25874 1-307): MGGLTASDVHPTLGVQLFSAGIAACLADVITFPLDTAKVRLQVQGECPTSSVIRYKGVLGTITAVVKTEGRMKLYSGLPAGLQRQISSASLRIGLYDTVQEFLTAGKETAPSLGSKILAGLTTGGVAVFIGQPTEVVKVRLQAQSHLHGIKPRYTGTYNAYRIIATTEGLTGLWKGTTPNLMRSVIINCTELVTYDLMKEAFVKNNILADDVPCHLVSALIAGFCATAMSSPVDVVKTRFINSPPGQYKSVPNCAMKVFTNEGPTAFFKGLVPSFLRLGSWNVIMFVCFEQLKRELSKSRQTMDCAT
Description: Differential scanning fluorimetry (nanoDSF) thermal stability shift assay. In kind it is binding. To be noted: for ΔTm at 1000 µM: read-out: thermal shift (ΔTm). In general terms: DSF heats the sample and reads unfolding from a dye or from intrinsic fluorescence.

The test system of experiment [2] is UCP1. The arrangement: method as in Heaton and Nicholls, 1977; Divakaruni et al, 2012. The settings on record: whole mitochondria; ref Heaton and Nicholls, 1977; Divakaruni et al, 2012; cited from earlier work.
Another experiment deals with T2, human DIC (SLC25A10) (Homo sapiens, UniProt Q9UBX3).
T2 construct: His8 (N, cleaved yes); Factor Xa protease cleavage site (N, cleaved yes); made in house; host or cells: Saccharomyces cerevisiae protease-deficient strain BJ2186
T2 sequence (Q9UBX3 1-287): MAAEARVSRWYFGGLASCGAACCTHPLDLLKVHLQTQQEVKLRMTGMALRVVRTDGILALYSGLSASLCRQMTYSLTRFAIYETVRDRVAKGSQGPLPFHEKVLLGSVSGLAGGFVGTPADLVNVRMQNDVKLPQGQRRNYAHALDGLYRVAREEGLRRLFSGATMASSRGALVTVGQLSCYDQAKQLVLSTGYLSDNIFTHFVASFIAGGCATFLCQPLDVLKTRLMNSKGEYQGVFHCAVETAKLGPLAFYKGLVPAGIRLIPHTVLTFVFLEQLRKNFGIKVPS
The experiment can be described thus: Differential scanning fluorimetry (nanoDSF) thermal stability shift assay. In kind it is binding. To be noted: 1 mM nucleotide, pH 6.0, single repeats (source data Fig. 4A). An excerpt: UCP1 is phylogenetically related to mitochondrial dicarboxylate carriers, gaining thermogenic properties as a later evolutionary development (Hughes et al, [2009]; Robinson et al, [2008]). The mitochondrial dicarboxylate carrier (DIC, SLC25A10) and oxoglutarate carrier (OGC, SLC25A11) are most closely related to UCP1 (Gaudry et al, [2019]; Hughes et al, [2009]) and share many residues involved in nucleotide binding in UCP1, such as the arginine triplet at the contact points, R92 and Q85 (Jones et al, [2024]). Given the similarity of the central cavity of UCP1, OGC and DIC, we tested whether the dicarboxylate carriers have the ability to bind nucleotides. For this purpose, we purified human DIC and OGC, and tested whether nucleotides were able to generate a thermostability shift, as observed for their physiological substrates (Pyrihová et al, [2024]). However, all tested nucleotides caused a negligible shift with both DIC or OGC at all pH values tested between 6.0 and 8.0 (Fig. 4A; Appendix Fig. S5). Thus, despite having many residues in common (Fig. 4B–D), UCP1 has evolved to have a few specific residues that allow high-affinity binding of nucleotides without a strong selection for nucleobase.
Differential scanning fluorimetry (nanoDSF) (Alexandrov et al, [2008]) was carried out with 2 µg UCP1, DIC or OGC protein (100 mM MES/HEPES, pH range 6.0–8.0, 25 mM NaCl, 1 mM TCEP, 0.01% lauryl maltose neopentyl glycol and 0.01 mg/mL tetraoleoyl cardiolipin) and, when required, 1 mM nucleotide, as indicated. The proteins have the following number of tryptophans: UCP1 (two); OGC (two); DIC (one). The samples were loaded into nanoDSF-grade standard glass capillaries. The temperature was increased by […] every minute from 25 to 95 °C, the intrinsic fluorescence was measured in a Prometheus NT.48 nanoDSF device, and the apparent Tm was calculated with the PR.ThermControl software (NanoTemper Technologies).

In experiment [3] the target is T1, UCP1. Description: Isothermal titration calorimetry of nucleotide binding.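 As to all read-outs here: purified human UCP1 in cacodylate buffer with lauryl maltose neopentyl glycol and cardiolipin, titrated with nucleotides, isotherms fitted by one-site model yielding ΔH, Kd and stoichiometry.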 The arrangement: isotherm data point (enthalpy change per injection): unit not given here. To be noted: for isotherm data point (enthalpy change per injection): representative isotherm. Background: Isothermal titration calorimetry measures the heat released or taken up as one component is titrated into another.

The target of experiment [4] is T1, UCP1. The experiment can be described thus: Liposome reconstitution and proton conductance assay (pyranine fluorescence). In kind it is biochemical. The settings on record: UCP1 proteoliposomes, 200 µM oleic acid alone, 2.5 µM valinomycin; single reconstitutions.
Experiment [5] deals with T3, human uncoupling protein 1 (human, UniProt P25874).
T3 construct: human uncoupling protein 1 (UCP1, SLC25A7), Uniprot P25874; Detergent-solubilised, with tetraoleoyl cardiolipin; also called UCP1; SLC25A7; source: Saccharomyces cerevisiae W303.1B, purified from mitochondria (Ni Sepharose, on-column Factor Xa cleavage); not shown: His8, N-terminal, cleaved
Description: cryo-EM structure; UCP1, PMb65 and PMb71 mixed stoichiometrically, overnight at 4 °C; complex separated by SEC (20 mM MES pH 6.0, 150 mM NaCl, 0.02% lauryl maltose neopentyl glycol, 0.02 mg/mL tetraoleoyl cardiolipin, 1 mM TCEP); 2 mM UTP and 2 mM D-maltose added; 3.03 Å. The settings on record: both partners purified. A general note: In gel filtration, larger molecules generally elute earlier.

Where “and” joins values, the source holds several entries; their conditions need not be identical. Identical values can stand only once. Like-named read-outs stand apart in the source and are kept apart here.

As a reminder, the Kd is the constant that tells how readily two partners part at equilibrium. As for `Nc1ccn(C2OC(COP(=O)(O)OP(=O)(O)OP(=O)(O)O)C(O)C2O)c(=O)n1` (centres unmarked) [CTP], the “temperature shift (ΔTm)” value at UCP1 [1] (1 mM nucleotide, pH 6.0, detergent-solubilised UCP1, mean of three biological repeats) was determined as 12.5 °C. Besides, the ΔTm at 1000 µM on UCP1 [1] (pH 6, 1 mM nucleotide, pH 6.0, single repeats (source data Fig. 1D)) was 12.3 °C; at UCP1 [1] (pH 6.5, 1 mM nucleotide, pH 6.5, single repeats (source data Fig. 1D)), 7.9 °C; on UCP1 [1] (pH 7, 1 mM nucleotide, pH 7.0, single repeats (source data Fig. 1D)) it was 4.4 °C. The “competition with GDP binding” value in the experiment on UCP1 [2] was “unable to displace the binding of GDP”. Also, at human DIC (SLC25A10), the “change in apparent melting temperature (ΔTm) of hDIC” value was found to be 0.0. For the same molecule, the “binding affinity to UCP1 (in words)” value at UCP1 [3] (ITC) is reported as “lowest affinity”. In addition, the dissociation constant Kd was 4.85 ± 0.69 µM on UCP1 [3] (ITC, pH 6.0, 20 °C, mean ± standard deviation of three biological repeats (Fig. 2A-E)); 5.47 µM and 4.96 µM and 4.11 µM on UCP1 [3] (ITC, single biological repeats (source data Fig. 2F)). Besides, the “isotherm data point (enthalpy change per injection)” value on UCP1 [3] (Molar ratio (Nucleotide/UCP) 0.120417, pH 6.0, 20 °C) is -22.2743; on UCP1 [3] (Molar ratio (Nucleotide/UCP) 0.181226, pH 6.0, 20 °C), -21.186; on UCP1 [3] (Molar ratio (Nucleotide/UCP) 0.242439, pH 6.0, 20 °C), -19.9722; at UCP1 [3] (Molar ratio (Nucleotide/UCP) 0.304059, pH 6.0, 20 °C), -20.0539; on UCP1 [3] (Molar ratio (Nucleotide/UCP) 0.366087, pH 6.0, 20 °C), -20.6988; at UCP1 [3] (Molar ratio (Nucleotide/UCP) 0.428528, pH 6.0, 20 °C), -18.255. Further, the “isotherm data point (enthalpy change per injection)” value on UCP1 [3] (Molar ratio (Nucleotide/UCP) 0.491383, pH 6.0, 20 °C) is listed as -16.7607; at UCP1 [3] (Molar ratio (Nucleotide/UCP) 0.554656, pH 6.0, 20 °C) it was -16.5202; on UCP1 [3] (Molar ratio (Nucleotide/UCP) 0.618348, pH 6.0, 20 °C), -14.6191; at UCP1 [3] (Molar ratio (Nucleotide/UCP) 0.682464, pH 6.0, 20 °C), -13.3617; on UCP1 [3] (Molar ratio (Nucleotide/UCP) 0.747006, pH 6.0, 20 °C), -10.6677; at UCP1 [3] (Molar ratio (Nucleotide/UCP) 0.811976, pH 6.0, 20 °C), -10.8499. Further, the “isotherm data point (enthalpy change per injection)” value was -10.2913 on UCP1 [3] (Molar ratio (Nucleotide/UCP) 0.877378, pH 6.0, 20 °C); -8.027 on UCP1 [3] (Molar ratio (Nucleotide/UCP) 0.943214, pH 6.0, 20 °C); -6.97 on UCP1 [3] (Molar ratio (Nucleotide/UCP) 1.00949, pH 6.0, 20 °C); -6.038 at UCP1 [3] (Molar ratio (Nucleotide/UCP) 1.0762, pH 6.0, 20 °C); -5.024 at UCP1 [3] (Molar ratio (Nucleotide/UCP) 1.14336, pH 6.0, 20 °C); -4.446 at UCP1 [3] (Molar ratio (Nucleotide/UCP) 1.21096, pH 6.0, 20 °C). Moreover, the “isotherm data point (enthalpy change per injection)” value is recorded as -2.802 at UCP1 [3] (Molar ratio (Nucleotide/UCP) 1.27901, pH 6.0, 20 °C); -2.027 on UCP1 [3] (Molar ratio (Nucleotide/UCP) 1.34751, pH 6.0, 20 °C); -1.98 on UCP1 [3] (Molar ratio (Nucleotide/UCP) 1.41647, pH 6.0, 20 °C); -0.1226 at UCP1 [3] (Molar ratio (Nucleotide/UCP) 1.48589, pH 6.0, 20 °C); -0.8262 at UCP1 [3] (Molar ratio (Nucleotide/UCP) 1.55577, pH 6.0, 20 °C); -0.604 on UCP1 [3] (Molar ratio (Nucleotide/UCP) 1.62611, pH 6.0, 20 °C). Also, the “isotherm data point (enthalpy change per injection)” value at UCP1 [3] (Molar ratio (Nucleotide/UCP) 1.69692, pH 6.0, 20 °C) is -1.2037; at UCP1 [3] (Molar ratio (Nucleotide/UCP) 1.76819, pH 6.0, 20 °C), -0.3877; on UCP1 [3] (Molar ratio (Nucleotide/UCP) 1.83995, pH 6.0, 20 °C), 0.4921; on UCP1 [3] (Molar ratio (Nucleotide/UCP) 1.91217, pH 6.0, 20 °C), -0.1525; on UCP1 [3] (Molar ratio (Nucleotide/UCP) 1.98488, pH 6.0, 20 °C), -0.1288.
Take `CCCCCCCC/C=C\CCCCCCCC(=O)O` [OA, oleic acid]: the Proton influx rate at UCP1 [4] is 908.51 nmol H+/min and 699.43 nmol H+/min and 609.97 nmol H+/min.

B1: Pro-macrobody PMb65 (VHH)
VHH: QVQLVESGGGLVQAGGSLRLSCAPSGRTSSTYTMGWFRQAPGKEREFVAAISWTGTPYYADSVKGRFTISRDNAKNTVYLQMNSLKPEDTAVYYCAAARPGLFIFVSDYARTAKYDYWGQGTQVTVPP
notes: llama nanobody CA9865; Expressed from the vector pBXNPHM3 (Addgene 110099); also called CA9865; source: E. coli MC1061, purified (Ni-NTA, 3C cleavage, Strep-Tactin XT); not shown: His-tagged MBP, N-terminal, cleaved
For the molecule B1, the binding result in experiment [5] is “binds”.

B2: Pro-macrobody PMb71 (VHH)
VHH: QVQLVESGGGLVQAGDSLRLSCAASGLTLKNYAMGWFRQAPGKEHEFVAVISWSGSGTSYADSVEGRFTISRDNAKNTAFLQMSSLKPEDTAVYYCAARDGGYGSRWPDEYTYWGQGTQVTVPP
notes: llama nanobody CA9871; Expressed from the vector pBXNPHM3 (Addgene 110099); also called CA9871; source: E. coli MC1061, purified (Ni-NTA, 3C cleavage, Strep-Tactin XT); not shown: His-tagged MBP, N-terminal, cleaved
On to B2, for which the binding result in experiment [5] is given as “binds”.
